Measurements: US20060069013A1, “Pharmaceutical preparations comprising acid-stabilised insulin” (Novo Nordisk A/S, priority 2003, published 2006)

Details: after subcutaneous injection of a soluble preparation; background statement; cited from earlier work
In the case of “Co^3+-hexamer: "absorption rates vary between about 1 hour (for rapid-acting insulin analogues ...) and about 4 hours (Co^3+-hexamer)"”, the absorption rates is listed as “about 4 hour”.

Same assay, conditions: in vivo, sc; cited from earlier work
In the case of “soluble human insulin hexamer: "inherent limitation of the absorption half-life to about 4 hours for a soluble human insulin hexamer"”, the absorption half-life is given as “about 4 hours”.
For Asp^B28 human insulin, the absorption rates is given as “about 1 hour”.

Details: not given
With c1cc(COc2ccc3ccccc3c2)cc(-c2nnn[nH]2)c1 [Example 572, 5-(3-(Naphthalen-2-yloxymethyl)-phenyl)-1H-tetrazole] the melting point was 200 to 202 °C.
COc1cc(OCc2c(F)cccc2[N+](=O)[O-])cc(OC)c1/C=C1\SC(=O)NC1=O [Example 237, 5-[4-(2-Fluoro-6-nitrobenzyloxy)-2,6-dimethoxybenzylidene]thiazolidine-2,4-dione] gave a melting point of 255 to 256 °C.
O=C1NC(=O)/C(=C/c2cc3ccccc3[nH]c2=O)S1 [Example 242, 5-(2-Oxo-1,2-dihydroquinolin-3-ylmethylene)thiazolidine-2,4-dione] showed a melting point of 338 to 347 °C.
In the case of CN(C)c1ccc(/C=C/C=C2\SC(=O)NC2=O)cc1 [Example 239, 5-[3-(4-Dimethylaminophenyl)allylidene]thiazolidine-2,4-dione], the melting point is reported as 259 to 263 °C.
In the case of COc1cc(C=C2SC(=O)NC2=O)cc(I)c1O [Example 167, 5-(4-Hydroxy-3-iodo-5-methoxybenzylidene)thiazolidine-2,4-dione], the melting point is reported as 256 °C.
In the case of CC(/C=C1\SC(=O)NC1=O)=C\c1ccccc1 [Example 240, 5-(2-Methyl-3-phenylallylidene)thiazolidine-2,4-dione], the melting point is reported as 203 to 210 °C.
Molecule O=C1NC(=O)/C(=C/c2cc3ccccc3o2)S1 [Example 238, 5-Benzofuran-2-ylmethylenethiazolidine-2,4-dione] has a melting point of 265 to 266 °C.
In the case of O=C1NC(=O)/C(=C/C(Cl)=C/c2ccccc2)S1 [Example 241, 5-(2-Chloro-3-phenylallylidene)thiazolidine-2,4-dione], the melting point is reported as 251 to 254 °C.
In the case of O=C1NC(=O)/C(=C/c2c(Cl)cccc2Cl)S1 [Example 229, 5-(2,6-Dichlorobenzylidene)thiazolidine-2,4-dione], the melting point is reported as 152 to 154 °C.
Molecule O=C1NC(=O)/C(=C/c2ccc3cc(O)ccc3c2)S1 [Example 171, 5-(6-Hydroxy-2-naphthylmethylene) thiazolidine-2,4-dione] has a melting point of 310 to 314 °C.
With O=C1NC(=O)/C(=C/c2c[nH]c3ccc([N+](=O)[O-])cc23)S1 [Example 199, 5-(5-Nitro-1H-indol-3-ylmethylene)thiazolidine-2,4-dione] the melting point was 330 to 333 °C.
Work on COc1cc(O)cc(OC)c1/C=C1\SC(=O)NC1=O [Example 234, 5-(4-Hydroxy-2,6-dimethoxybenzylidene)thiazolidine-2,4-dione] yielded a melting point of 331 to 333 °C.
